Patent US20260034123A1 (Cedilla Therapeutics, Inc., priority 2022, published 2026)
“And” between values parts separate entries of the source, which are not always exact repeats. Equal entries are not always repeated.

What was measured:
[1] = biological target: T1, CDK2/Cyclin E1 (Homo sapiens, UniProt P24941); assay: Caliper LabChip EZ Reader mobility shift assay; type: biochemical; conditions: 2.5 nM CDK2/Cyclin E1(14-475), 100 μM ATP, 30 min preincubation; read-out: Caliper Assay (CDK2/CCNE1): IC50
Procedure: Inhibition of CDK2/Cyclin E1 activity in the presence of compounds of the present disclosure was evaluated using a Caliper LabChip® EZ Reader mobility shift assay. In the assay, activated CDK2/Cyclin E1 catalyzes the phosphorylation of a fluorescently tagged peptide 5-FAM-QSPKKG-CONH2 (PerkinElmer, FL Peptide 18) which induces a difference in capillary electrophoresis mobility. The peptide substrate and product were measured, and the conversion ratio was used to determine the inhibition (as % activity and IC50 values) of CDK2/Cyclin E1. Reactions contained 50 mM HEPES pH 7.5, 10 mM MgCl2, 1 mM EDTA, 2 mM DTT, 0.01% Brij35, 0.5 mg/mL BSA, 0.1% DMSO, 2.5 nM CDK2/Cyclin E1(14-475), 100 μM ATP, and 1.5 μM fluorescent peptide substrate.
Dose titrations of inhibitors in 100% DMSO were combined with 3.25 nM CDK2/Cyclin E1(14-475) and 130 μM of ATP in reaction buffer. The mixtures were incubated for 30 minutes before the addition of fluorescent peptide substrate to initiate the kinase reaction. The final conditions were 2.5 nM CDK2/Cyclin E1(14-475), 100 μM ATP, and 1.5 μM fluorescent peptide. The reactions were stopped after 100 minutes with the addition of EDTA (6 mM final EDTA concentration). The stopped reactions were analyzed on a Caliper LabChip® EZ Reader 11. The conversion ratios were normalized to yield % activity, plotted against compound concentration, and fit to a four-parameter equation to determine the IC50 for each compound.

[2] = biological target: T1, CDK2/Cyclin E1; assay: ADP-Glo Luminescent Kinase Assay (CDK2/E1-37C); type: biochemical; conditions: 0.18 nM CDK2/Cyclin E1, 100 μM ATP, Histone H1, 37° C.; read-out: ADPGLO (CDK2/E1-37C): IC50
Outline: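 IC50 fitted by four-parameter equation from ADP-Glo luminescence converted to % activity. Compounds were preincubated 60 min at 37 °C with enzyme, then kinase reaction ran 90 min at 37 °C with 0.18 nM enzyme, 100 μM ATP, Histone H1 ([…]), pH 7.5 HEPES, Mg2+, DTT.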

[3] = test system: Kuramochi cells RB-WT; assay: IncuCyte Kuramochi cell proliferation assay, RB-WT; type: cell-based; conditions: 72 hours, cell count
Outline: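 GI50 was derived by curve-fitting DMSO-normalized fold change in nuclear count between 0 and 72 h. Counts came from images of Kuramochi cells carrying mApple-H2B. Compounds were dosed over 10 points at 1/2-log spacing from a 20 µM top concentration.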

[4] = test system: mouse models of polycystic kidney disease; conditions: Bukanov et al., Nature 2006; cited from earlier work

Structure (SMILES) | IC50 [1] | IC50 [2] [µM] | IC50 [3] [µM] | arrest of cystic kidney disease [4]
Cc1c(COC[C@@H]2CN(C(=O)c3cncs3)CC23CN(C(=O)[C@H]2CC2(C)C)C3)cccc1C1CCOCC1 [Compound I-31, ((S)-2-((S)-2,2-dimethylcyclopropanecarbonyl)-8-(((2-methyl-3-(tetrahydro-2H-pyran-4-yl)benzyl)oxy)methyl)-2,6-diazaspiro[3.4]octan-6-yl)(thiazol-5-yl)methanone] | 0.1 to 1 µM | 0.5 to 5 | 5 to 10 | 
CC[C@H](CO)Nc1nc(NCc2ccccc2)c2ncn(C(C)C)c2n1 [roscovitine] |  |  |  | effective arrest of cystic kidney disease
CC1(C)C[C@@H]1C(=O)N1CC2(CN(C(=O)c3cncs3)C[C@H]2COCc2cccc(-c3ccccc3)n2)C1 [Compound I-36, ((S)-2-((S)-2,2-dimethylcyclopropanecarbonyl)-8-(((6-phenylpyridin-2-yl)methoxy)methyl)-2,6-diazaspiro[3.4]octan-6-yl)(thiazol-5-yl)methanone] | 0.1 to 1 µM | 5 to 10 | > 10 | 
CC1(C)C[C@@H]1C(=O)N1CC2(CN(C(=O)c3cncs3)CC2COCc2cccc(-c3ccc(C(F)(F)F)cc3)c2C(=O)O)C1 (stereo partly drawn) [Compound I-4, 3-(((2-((S)-2,2-dimethylcyclopropane-1-carbonyl)-6-(thiazole-5-carbonyl)-2,6-diazaspiro[3.4]octan-8-yl)methoxy)methyl)-4′-(trifluoromethyl)-[1,1′-biphenyl]-2-carboxylic acid] | < 0.01 µM | 0.5 to 5 | > 10 | 
CC1(C)C[C@@H]1C(=O)N1CC2(CN(C(=O)c3cnn(Cc4ccc(C(=O)O)cc4)c3)CC2COCc2cccc(-c3ccc(C(F)(F)F)cc3)n2)C1 (stereo partly drawn) [Compound I-6, 4-((4-(2-((S)-2,2-dimethylcyclopropane-1-carbonyl)-8-(((6-(4-(trifluoromethyl)phenyl)pyridin-2-yl)methoxy)methyl)-2,6-diazaspiro[3.4]octane-6-carbonyl)-1H-pyrazol-1-yl)methyl)benzoic acid] | 1 to 10 µM | > 10 | > 10 | 
CC1(C)C[C@@H]1C(=O)N1CC2(CN(C(=O)c3cncs3)C[C@H]2COCc2cccc(-c3ccc(C(F)(F)F)cc3)n2)C1 [Compound I-34, ((S)-2-((S)-2,2-dimethylcyclopropane-1-carbonyl)-8-(((6-(4-(trifluoromethyl)phenyl)pyridin-2-yl)methoxy)methyl)-2,6-diazaspiro[3.4]octan-6-yl)(thiazol-5-yl)methanone] | 0.01 to 0.1 µM | 0.5 to 5 | 5 to 10 | 
COC(=O)c1c(COCC2CN(C(=O)c3cncs3)CC23CN(C(=O)[C@H]2CC2(C)C)C3)cccc1-c1ccc(C(F)(F)F)cc1 (stereo partly drawn) [Compound I-5, methyl 3-(((2-((S)-2,2-dimethylcyclopropane-1-carbonyl)-6-(thiazole-5-carbonyl)-2,6-diazaspiro[3.4]octan-8-yl)methoxy)methyl)-4′-(trifluoromethyl)-[1,1′-biphenyl]-2-carboxylate] | 0.01 to 0.1 µM | 0.5 to 5 | 5 to 10 | 

Further lines, with some results ahead:

IC50 [1] | IC50 [2] [µM] | Structure (SMILES) | IC50 [3] [µM] | arrest of cystic kidney disease [4]
1 to 10 µM and 0.1 to 1 µM | 5 to 10 | CC1(C)C[C@@H]1C(=O)N1CC2(CN(C(=O)c3cncs3)C[C@H]2COCc2cccc(C3CCOCC3)n2)C1 [Compound I-49, (2-((S)-2,2-dimethylcyclopropane-1-carbonyl)-8-(((6-(tetrahydro-2H-pyran-4-yl)pyridin-2-yl)methoxy)methyl)-2,6-diazaspiro[3.4]octan-6-yl)(thiazol-5-yl)methanone] | > 10 | 
0.1 to 1 µM | > 10 | CC1(C)C[C@@H]1C(=O)N1CC2(CN(C(=O)c3cncs3)C[C@H]2COCc2cccc(C3CCOCC3)c2)C1 [Compound I-39, ((S)-2-((S)-2,2-dimethylcyclopropane-1-carbonyl)-8-(((3-(tetrahydro-2H-pyran-4-yl)benzyl)oxy)methyl)-2,6-diazaspiro[3.4]octan-6-yl)(thiazol-5-yl)methanone] | > 10 | 
> 10 µM | > 10 | O=C(O)C(Cc1cccc(-c2ccc(C(F)(F)F)cc2)n1)CC1CN(C(=O)c2cnn(Cc3ccc(C(F)(F)F)cc3)c2)CC12CN(C(=O)C1(C(F)(F)F)CC1)C2 (stereo not shown) [Compound I-50, 2-((6-(1-(4-(trifluoromethyl)benzyl)-1H-pyrazole-4-carbonyl)-2-(1-(trifluoromethyl)cyclopropane-1-carbonyl)-2,6-diazaspiro[3.4]octan-8-yl)methyl)-3-(6-(4-(trifluoromethyl)phenyl)pyridin-2-yl)propanoic acid] | > 10 | 
0.1 to 1 µM | > 10 | CC1(C)C[C@@H]1C(=O)N1CC2(CN(C(=O)c3cncs3)C[C@H]2COCc2ccn(C3CCCC3)n2)C1 [Compound I-38, ((S)-8-(((1-cyclopentyl-1H-pyrazol-3-yl)methoxy)methyl)-2-((S)-2,2-dimethylcyclopropane-1-carbonyl)-2,6-diazaspiro[3.4]octan-6-yl)(thiazol-5-yl)methanone] | > 10 | 
